Test results published in article PMC9596378, “Discovery and molecular basis of subtype-selective cyclophilin inhibitors” (Nature Chemical Biology, 2022).
Several values for one entry are separate records, joined by “and”; a condition that tells them apart may be missing. Identical values can stand only once. Like-named read-outs stand apart in the source and are kept apart here.

Columns and labels:
CypD = CypD (Homo sapiens, UniProt P30405); assay: Chymotrypsin coupled prolyl-isomerase assay; details: for selectivity for CypD against the remaining six cyclophilins / selectivity for CypD over CypA / selectivity for CypD over CypA and PPIL1 / selectivity for CypD over CypE and CypB: prolyl-isomerase IC50
CypB = target: T1, CypB (Homo sapiens, UniProt P23284); assay: biochemical
T1 construct: PPIB (UniProtKB Entry P23284: residues 34–216); His6 with TEV site (2BT vector leader) (N); made in house; host or cells: E. coli BL21(DE3)
Summary of the method: (§1)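 5 nM Cyp, HEPES pH 7.3/NaCl/Triton buffer, 2–3 °C; cpd 5 min, chymotrypsin 25 µM 5 min, then Suc-AAPF-AMC 5 µM in LiCl/TFE. Kinetic fluorescence 330 s. Per-well rate constants, normalized, IC50 from nonlinear fit.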

Cyp40 = Cyp40 (Homo sapiens, UniProt Q08752); assay: Chymotrypsin coupled prolyl-isomerase assay
Summary of the method: as §1

NKTR = target: T2, NKTR (Homo sapiens, UniProt P30414); assay: Chymotrypsin coupled prolyl-isomerase assay; format: biochemical
T2 construct: NKTR (UniProtKB Entry P30414: residues 7–179); host or cells: E. coli BL21(DE3)
T2 sequence (P30414 7-179): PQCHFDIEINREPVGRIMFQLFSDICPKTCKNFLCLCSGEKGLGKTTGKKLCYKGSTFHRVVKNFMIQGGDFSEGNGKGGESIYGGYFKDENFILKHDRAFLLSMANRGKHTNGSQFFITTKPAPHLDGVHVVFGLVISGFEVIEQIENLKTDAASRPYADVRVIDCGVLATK

PPIL1 = target: T3, PPIL1 (Homo sapiens, UniProt Q9Y3C6); assay: Chymotrypsin coupled prolyl-isomerase assay; format: biochemical
T3 construct: PPIL1 (UniProtKB Entry Q9Y3C6: residues 1–166); made in house; host or cells: E. coli BL21(DE3)
T3 sequence (Q9Y3C6 1-166): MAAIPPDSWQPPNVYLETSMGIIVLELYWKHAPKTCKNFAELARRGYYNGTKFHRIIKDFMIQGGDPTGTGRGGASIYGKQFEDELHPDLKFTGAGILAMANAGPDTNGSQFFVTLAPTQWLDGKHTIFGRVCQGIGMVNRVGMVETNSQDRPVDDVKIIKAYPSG

PPWD1 = target: T4, PPWD1 (Homo sapiens, UniProt Q96BP3); assay: Chymotrypsin coupled prolyl-isomerase assay; format: biochemical
T4 construct: PPWD1 (UniProtKB Entry Q96BP3: residues 473–646); host or cells: E. coli BL21(DE3)
T4 sequence (Q96BP3 473-646): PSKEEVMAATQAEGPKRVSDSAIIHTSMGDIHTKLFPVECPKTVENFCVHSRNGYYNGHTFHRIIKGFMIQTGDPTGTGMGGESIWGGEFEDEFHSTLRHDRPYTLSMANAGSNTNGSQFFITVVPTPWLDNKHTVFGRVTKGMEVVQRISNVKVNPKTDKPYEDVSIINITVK
Description: Five microliters of compound pre-dissolved in 5% DMSO/assay buffer was then added to appropriate wells and incubated at 2–3 °C for 5 min. Five microliters of 0.5 mM α-chymotrypsin from bovine pancreas (Type II, lyophilized powder, Millipore-Sigma) in 20% 1 mM HCl/Assay Buffer was then added to each well and incubated at 2–3 °C for 5 min. The plate was then quickly transferred to a FLIPR Tetra High-Throughput Cellular Screening System (Molecular Devices). Using the internal liquid handling system of the FLIPR, 1 µL 0.5 mM Suc-AAPF-AMC (Chymotrypsin Substrate II, Millipore-Sigma) dissolved in 0.55 M LiCl/2,2,2-trifluoroethanol was added to each well, which was then mixed for 5 s, followed by immediate fluorescence measurements every 1 s for 330 s using a 360–380 nm excitation LED module and a 400–460 nm emission filter. […] Raw fluorescence data was analyzed by non-linear regression analysis with Prism v.9 by fitting one-phase association curves to each well. Analyses were halted after the calculated maximum fluorescent value owing to observed fluorescent bleaching during the sustained fluorescent plateau. Rate constants calculated for each well (s^−1) were then normalized to substrate only (no prolyl-isomerase) and enzyme + substrate only controls.

[1] = IC50 CypD, Independent replicate 1, mean±SEM of 3 technical replicates
[2] = IC50 CypD, Independent replicate 2
[3] = IC50 CypD, Independent replicate 3
[4] = IC50 CypD, Independent replicate 4
[5] = CypB (comparator for CypB E121S), read-out: Mutant Cyclophilin Prolyl Isomerase Inhibition IC50 Values, CypB
[6] = Independent replicate 2, read-out: IC50 CypB
[7] = Independent replicate 3, read-out: IC50 CypB
[8] = Independent replicate 4, read-out: IC50 CypB
[9] = prolyl-isomerase inhibition, 5 nM cyclophilin, read-out: IC50 CypB
[10] = prolyl-isomerase inhibition, read-out: IC50 CypB
[11] = wild-type CypB, read-out: Wild-Type Cyclophilin Prolyl Isomerase Inhibition IC50 Values, CypB
[12] = IC50 Cyp40, Independent replicate 1
[13] = IC50 Cyp40, Independent replicate 2
[14] = IC50 Cyp40, Independent replicate 3
[15] = IC50 Cyp40, Independent replicate 4
[16] = Wild-Type Cyclophilin Prolyl Isomerase Inhibition IC50 Values, Cyp40, wild-type Cyp40
[17] = Independent replicate 1, read-out: IC50 NKTR
[18] = Independent replicate 2, read-out: IC50 NKTR
[19] = Independent replicate 3, read-out: IC50 NKTR
[20] = Independent replicate 4, read-out: IC50 NKTR
[21] = prolyl-isomerase inhibition, 5 nM cyclophilin, read-out: IC50 NKTR
[22] = wild-type NKTR, read-out: Wild-Type Cyclophilin Prolyl Isomerase Inhibition IC50 Values, NKTR
[23] = Independent replicate 1, read-out: IC50 PPIL1
[24] = Independent replicate 2, read-out: IC50 PPIL1
[25] = Independent replicate 3, read-out: IC50 PPIL1
[26] = Independent replicate 4, read-out: IC50 PPIL1
[27] = prolyl-isomerase inhibition, 5 nM cyclophilin, read-out: IC50 PPIL1
[28] = wild-type PPIL1, read-out: Wild-Type Cyclophilin Prolyl Isomerase Inhibition IC50 Values, PPIL1
[29] = Independent replicate 1, read-out: IC50 PPWD1
[30] = Independent replicate 2, read-out: IC50 PPWD1
[31] = Independent replicate 3, read-out: IC50 PPWD1
[32] = Independent replicate 4, read-out: IC50 PPWD1
[33] = prolyl-isomerase inhibition, 5 nM cyclophilin, read-out: IC50 PPWD1
[34] = wild-type PPWD1, read-out: Wild-Type Cyclophilin Prolyl Isomerase Inhibition IC50 Values, PPWD1

Chain of Cyp40 (Q08752 1-183): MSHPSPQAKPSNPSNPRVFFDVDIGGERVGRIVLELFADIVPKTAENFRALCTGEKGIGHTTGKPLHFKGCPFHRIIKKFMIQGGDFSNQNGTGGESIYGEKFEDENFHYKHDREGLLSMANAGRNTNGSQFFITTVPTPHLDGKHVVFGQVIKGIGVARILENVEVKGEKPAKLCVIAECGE
Chain of CypD (P30405 45-207): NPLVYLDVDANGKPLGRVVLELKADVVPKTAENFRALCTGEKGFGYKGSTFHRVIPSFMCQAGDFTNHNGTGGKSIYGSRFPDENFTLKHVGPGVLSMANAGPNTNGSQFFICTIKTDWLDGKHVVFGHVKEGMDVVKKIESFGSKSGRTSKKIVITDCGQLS
T1 sequence (P23284 34-216): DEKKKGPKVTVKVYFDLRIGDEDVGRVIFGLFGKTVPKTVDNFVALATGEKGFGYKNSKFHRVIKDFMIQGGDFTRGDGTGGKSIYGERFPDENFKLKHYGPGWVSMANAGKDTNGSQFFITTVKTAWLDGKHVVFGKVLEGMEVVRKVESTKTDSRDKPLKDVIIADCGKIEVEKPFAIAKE

NCCOCCNC(=O)[C@@H]1CCNC(=O)/C=C/C(=O)N2CCC[C@](Cc3ccccc3)(C2)C(=O)N[C@@H](Cc2ccc(-c3ccc(CC(C(=O)O)C(=O)O)cc3)cc2)C(=O)NCc2ccccc2CC(=O)N1 [Compound B52]
IC50 (CypD): 10 ± 4 nM | IC50 (CypD; [1]): 10 ± 2 nM | IC50 (CypD; [2]): 11 ± 4 nM | IC50 (CypD; [3]): 11 ± 5 nM | IC50 (CypD; [4]): 10 ± 5 nM | IC50 (CypD; IC50 CypD, prolyl-isomerase inhibition): 10 nM | IC50 (CypD; Wild-Type Cyclophilin Prolyl Isomerase Inhibition IC50 Values, CypD, wild-type CypD): 10 nM | selectivity for CypD against the remaining six cyclophilins (CypD): > 900 fold | selectivity for CypD over CypA (CypD): > 100 fold and 100 fold | selectivity for CypD over CypA and PPIL1 (CypD): 60- to 900 fold | selectivity for CypD over CypE and CypB (CypD): 15- to 30 fold | IC50 (CypD; read-out: IC50 CypD, prolyl-isomerase inhibition, 5 nM cyclophilin, Suc-AAPF-AMC, mean±s.e.m. of 3 technical replicates (B52, B53, C3A wild-type: mean±s.d. of 4 independent replicates)): 10 nM | IC50 (CypB; [5]): 200 nM | IC50 (CypB; Independent replicate 1, read-out: IC50 CypB): 200 ± 50 nM | IC50 (CypB; [6]): 190 ± 30 nM | IC50 (CypB; [7]): 210 ± 40 nM | IC50 (CypB; [8]): 200 ± 100 nM | IC50 (CypB; [9]): 210 nM | IC50 (CypB; [10]): 210 nM | IC50 (CypB; [11]): 210 nM | IC50 (Cyp40; [12]): 13000 ± 5000 nM | IC50 (Cyp40; [13]): 30000 ± 20000 nM | IC50 (Cyp40; [14]): 20000 ± 10000 nM | IC50 (Cyp40; [15]): 20000 ± 10000 nM | IC50 (Cyp40; [16]): 22000 nM | IC50 (NKTR; [17]): > 100000 nM | IC50 (NKTR; [18]): > 100000 nM | IC50 (NKTR; [19]): > 100000 nM | IC50 (NKTR; [20]): > 100000 nM | IC50 (NKTR; [21]): > 100000 nM | IC50 (NKTR; prolyl-isomerase inhibition, read-out: IC50 NKTR): > 100000 nM | IC50 (NKTR; [22]): > 100000 nM | IC50 (PPIL1; [23]): 5000 ± 2000 nM | IC50 (PPIL1; [24]): 9000 ± 3000 nM | IC50 (PPIL1; [25]): 6000 ± 2000 nM | IC50 (PPIL1; [26]): 5000 ± 2000 nM | IC50 (PPIL1; [27]): 6000 ± 2000 nM | IC50 (PPIL1; prolyl-isomerase inhibition, read-out: IC50 PPIL1): 6000 nM | IC50 (PPIL1; [28]): 6000 nM | IC50 (PPWD1; [29]): > 100000 nM | IC50 (PPWD1; [30]): > 100000 nM | IC50 (PPWD1; [31]): > 100000 nM | IC50 (PPWD1; [32]): > 100000 nM | IC50 (PPWD1; [33]): > 100000 nM | IC50 (PPWD1; prolyl-isomerase inhibition, read-out: IC50 PPWD1): > 100000 nM | IC50 (PPWD1; [34]): > 100000 nM

C[N+]1=C(C=CC=CC=C2N(CCCCCC(=O)NCCNC(=O)C3CCNC(=O)C=CC(=O)N4CCCC(Cc5ccccc5)(C4)C(=O)NC(Cc4ccc(-c5ccc(C(CC(=O)O)CC(=O)O)cc5)cc4)C(=O)NCc4ccccc4CC(=O)N3)c3ccccc3C2(C)C)C(C)(C)c2ccccc21 (stereo not drawn) [Compound B53-Cy5]
IC50 (CypD; read-out: Wild-Type Cyclophilin Prolyl Isomerase Inhibition IC50 Values, CypD, wild-type CypD): 29 nM | IC50 (CypB; [9]): ~1500 nM | IC50 (CypB; [11]): 1500 nM | IC50 (Cyp40; read-out: Wild-Type Cyclophilin Prolyl Isomerase Inhibition IC50 Values, Cyp40, wild-type Cyp40): > 2000 nM | IC50 (NKTR; [22]): > 2000 nM | IC50 (PPIL1; [28]): > 2000 nM | IC50 (PPWD1; [34]): > 2000 nM

NCCOCCNC(=O)[C@@H]1CCNC(=O)/C=C/C(=O)N2CCC[C@](Cc3ccccc3)(C2)C(=O)N[C@@H](Cc2ccc(-c3ccc(C(CC(=O)O)CC(=O)O)cc3)cc2)C(=O)NCc2ccccc2CC(=O)N1 [Compound B53]
IC50 (CypD): 57 nM | IC50 (CypD; [1]): 40 ± 10 nM | IC50 (CypD; [2]): 50 ± 20 nM | IC50 (CypD; [3]): 60 ± 20 nM | IC50 (CypD; [4]): 60 ± 30 nM | selectivity for CypD against the remaining six cyclophilins (CypD): > 900 fold | selectivity for CypD over CypA (CypD): > 100 fold and 100 fold | selectivity for CypD over CypA and PPIL1 (CypD): 60- to 900 fold | selectivity for CypD over CypE and CypB (CypD): 15- to 30 fold | IC50 (CypB; [5]): 500 nM | IC50 (CypB; [6]): 1600 ± 600 nM | IC50 (CypB; [7]): 1100 ± 500 nM | IC50 (CypB; [8]): 1300 ± 800 nM | IC50 (CypB; [9]): 1100 nM | IC50 (CypB; [10]): 1100 nM | IC50 (CypB; [11]): 1100 nM | IC50 (Cyp40; [12]): > 50000 nM | IC50 (Cyp40; [13]): > 50000 nM | IC50 (Cyp40; [14]): > 50000 nM | IC50 (Cyp40; [15]): > 50000 nM | IC50 (Cyp40; IC50 Cyp40, prolyl-isomerase inhibition, 5 nM cyclophilin): > 50000 nM | IC50 (Cyp40; [16]): > 50000 nM | IC50 (NKTR; [17]): > 50000 nM | IC50 (NKTR; [18]): > 50000 nM | IC50 (NKTR; [19]): > 50000 nM | IC50 (NKTR; [20]): > 50000 nM | IC50 (NKTR; [21]): > 50000 nM | IC50 (NKTR; [22]): > 50000 nM | IC50 (PPIL1; [23]): ~30000 nM | IC50 (PPIL1; [24]): > 50000 nM | IC50 (PPIL1; [25]): > 50000 nM | IC50 (PPIL1; [26]): > 50000 nM | IC50 (PPIL1; [27]): > 50000 nM | IC50 (PPIL1; [28]): > 50000 nM | IC50 (PPWD1; [29]): > 50000 nM | IC50 (PPWD1; [30]): > 50000 nM | IC50 (PPWD1; [31]): > 50000 nM | IC50 (PPWD1; [32]): > 50000 nM | IC50 (PPWD1; [33]): > 50000 nM | IC50 (PPWD1; [34]): > 50000 nM
